{"source": "patent US6514709B1", "about": "“High throughput screening by measurement of intracellular calcium levels” (Merck & Co., Inc., priority 2000, dated 2003)", "key": {"[1]": {"target": "T1, human growth hormone secretagogue receptor type 1a (hGHSR1A) (Homo sapiens, UniProt Q92847)", "T1 construct": "expressed in transfected cells", "T1 sequence (Q92847 whole entry)": "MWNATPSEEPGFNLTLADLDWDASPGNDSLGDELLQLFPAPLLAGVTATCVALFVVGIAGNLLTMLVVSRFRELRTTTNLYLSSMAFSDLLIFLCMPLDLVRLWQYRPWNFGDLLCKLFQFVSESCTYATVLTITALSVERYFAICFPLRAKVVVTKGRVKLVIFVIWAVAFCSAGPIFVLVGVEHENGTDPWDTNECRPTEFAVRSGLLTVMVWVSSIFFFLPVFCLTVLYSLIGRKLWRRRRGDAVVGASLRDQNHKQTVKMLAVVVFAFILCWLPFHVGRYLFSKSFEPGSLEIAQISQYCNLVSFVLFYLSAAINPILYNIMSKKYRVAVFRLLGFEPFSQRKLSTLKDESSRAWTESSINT", "assay": "Fluo-4 fluorescence calcium response in hGHSR1a cells (VIPR)", "type": "cell-based", "settings": "30 μM BAPTA-AM, 100 nM ghrelin", "protocol": "Cells were grown to 80-95% confluence in tissue culture flasks (T-225, Corning) and harvested by trypsinization (Trypsin/EDTA, GIBCOBRL). Cells were dispensed (about 1×10^5 cells/0.2 ml/well) into 96-well black clear-bottom BIOCOAT poly-D-lysine plates (BECTON DICKENSON, Bedford, Mass.) in growth media and incubated overnight at 37° C. in a humidified incubator at 10% CO^2. […] Wells were washed two times with 100 μl of enriched-PBS, and then 100 μl enriched-PBS with or without antagonist was added for 15-30 minutes prior to assay on the AURORA fluorescence plate reader VIPR (ex. 480 nm, em. 535 nm). […] The VIPR instrument was used to add agonist (in 100 μl enriched-PBS) after recording a 10 sec. baseline and the fluorescence was measured for up to 300 sec."}, "[2]": {"tested_on": "ionomycin-induced calcium influx", "settings": "presence of BAPTA-AM; cited from earlier work"}, "[3]": {"tested_on": "ligand-gated calcium channel", "assay": "Model aequorin-based functional cellular assay for a ligand-gated calcium channel", "type": "cell-based", "settings": "BAPTA-AM 0-30 uM, after injection of agonist", "protocol": "For this assay, HEK293 cells co-expressing the receptor of interest and apoaequorin were grown to confluence in BIOCOAT poly-D-lysine opaque white 96-well microtiter plates (BECTON DICKINSON). The cells were maintained on a standard growth media. The cells were charged with growth media supplemented with 5 uM of coelenterazine h (MOLECULAR PROBES, Eugene, Oreg.) for 2 hr at 37° C. in a humidified incubator at 5% CO2. The charged cells were then washed and loaded with assay buffer.\nAddition of agonist caused the rapid and transient luminescent signal that was complete within 10-15 seconds (FIG. 1). The kinetics of the flash luminescent signal was followed by using a WALLAC MICROBETA JET instrument where agonist was injected directly into the wells containing the charged cells. As a buffering reagent the cell permeable acetoxymethyl ester BAPTA-AM was used. BAPTA is a specific calcium chelator that rapidly binds and releases calcium. […] A schematic representation of this assay appears in FIG. 2.\nThe addition of increasing levels of BAPTA-AM (0-30 uM) caused an initial delay in the aequorin-based luminescence signal upon injection of agonist and extended the signal far greater than 30 seconds (FIG. 1). The addition of a known receptor antagonist was able to completely block the signal (FIG. 3)."}, "[4]": {"target": "T1, human growth hormone secretagogue receptor type 1a (hGHSR1A)", "assay": "Aequorin luminescence in hGHSR1A cells (WALLAC MICROBETA JET)", "type": "cell-based", "settings": "30 μM BAPTA-AM, 100 nM ghrelin", "method": "Cells were charged with the aequorin substrate, coelenterazine h (MOLECULAR PROBES, #C-6780), by removing the growth media and incubating the cells with 75 μl of charge buffer (DMEM GIBCOBRL#12320-032; 0.1% FBS GEMINI BIO-PRODUCTS, Inc. #100-107; 5 μM coelenterazine h; 30 μM reduced glutathione) for 2 hours at 37° C., 10% CO^2. […] The cells were then washed and loaded with 100 μl of enriched-PBS with or without the indicated antagonist. […] In order to obtain more consistent kinetics, the Jet was set to simultaneously read only six wells per determination."}, "[5]": {"target": "T2, rat VR1 capsaicin receptor (Rattus norvegicus, UniProt O35433)", "T2 construct": "expressed in transfected cells", "T2 sequence (O35433 whole entry)": "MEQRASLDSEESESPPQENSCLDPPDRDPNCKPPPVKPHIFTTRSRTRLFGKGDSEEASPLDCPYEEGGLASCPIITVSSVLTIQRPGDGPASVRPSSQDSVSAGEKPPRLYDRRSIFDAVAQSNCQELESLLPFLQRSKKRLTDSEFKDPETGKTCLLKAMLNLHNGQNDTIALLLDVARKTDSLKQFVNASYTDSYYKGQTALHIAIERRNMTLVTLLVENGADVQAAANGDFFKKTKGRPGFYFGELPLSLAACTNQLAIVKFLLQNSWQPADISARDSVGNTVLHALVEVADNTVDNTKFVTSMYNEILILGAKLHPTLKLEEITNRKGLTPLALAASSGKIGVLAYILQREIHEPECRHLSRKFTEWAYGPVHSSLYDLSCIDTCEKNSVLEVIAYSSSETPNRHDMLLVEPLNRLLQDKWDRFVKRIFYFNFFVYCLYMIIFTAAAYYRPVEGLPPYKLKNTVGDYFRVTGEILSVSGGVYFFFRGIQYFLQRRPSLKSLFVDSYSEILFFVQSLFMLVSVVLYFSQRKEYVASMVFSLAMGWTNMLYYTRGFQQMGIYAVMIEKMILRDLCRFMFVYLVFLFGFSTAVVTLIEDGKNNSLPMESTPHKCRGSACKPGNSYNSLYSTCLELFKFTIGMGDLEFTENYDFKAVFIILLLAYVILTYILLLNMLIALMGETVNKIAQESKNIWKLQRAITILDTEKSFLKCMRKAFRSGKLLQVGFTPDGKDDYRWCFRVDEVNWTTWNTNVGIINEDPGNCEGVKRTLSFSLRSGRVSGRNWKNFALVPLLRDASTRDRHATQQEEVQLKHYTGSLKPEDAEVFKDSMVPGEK", "assay": "Fluo-3 fluorescence calcium response in VR1 cells (VIPR)", "type": "cell-based", "settings": "0.5 uM capsaicin", "protocol": "Parental HEK293 cell lines expressing apoaequorin (293AEQ17 cells) were used to develop stable clonal cell lines expressing the rat VR1 capsaicin receptor (Caterina, M. J., Schumacher, M. A., Tominaga, M., Rosen, T. A., Levine, J. D., and Julius, D. (1997) The capsaicin receptor: a heat-activated ion channel in the pain pathway. Nature 389, 816-824). The VR1 293AEQ17 were maintained on growth media containing DMEM (GIBCOBRL, high glucose, with L-glutamine, with 110 mg/L sodium pyruvate, with pyridoxine HCl), 25 mM HEPES (GIBCOBRL, 1M stock), 0.5 mg/mL geneticin (GIBCOBRL, 50 mg/mL stock), 1 μg/mL puromycin (CLONTECH), and 10% fetal bovine serum (GEMINI BIO-PRODUCTS, heat inactivated) at 37° C., 10% CO^2.\nCells were grown to 80-95% confluence in tissue culture flasks (T-225, CORNING) and harvested by trypsinization (Trypsin/EDTA, GIBCOBRL). Cells were dispensed (about 1×10^5 cells/0.2 ml/well) into 96-well black clear-bottom BIOCOAT poly-D-lysine plates (BECTON DICKENSON, Bedford, Mass.) in growth media and incubated overnight at 37° C. in a humidified incubator at 10% CO^2. Cells were washed once with 200 μls of enriched PBS (Dulbecco's PBS (GIBCOBRL #14040-117), 10 mM HEPES, 2 g/L glucose; pH 7.2) and then incubated with 100 μl of 5 μM fluo-3-AM (MOLECULAR PROBES #F1241) with or without of 1,2-bis(o-aminophenoxy)ethane-N,N,N′,N′-tetraacetic acid tetra(acetoxymethyl) ester (BAPTA-AM, MOLECULAR PROBES #B 1205) in enriched PBS containing 0.02% pluronic F-127 (MOLECULAR PROBES #P-3000) for 30-70 minutes. Wells were washed two times with 100 μl of enriched-PBS, and then 100 μl enriched-PBS with or without antagonist was added for 15-30 minutes prior to assay on the AURORA fluorescence plate reader VIPR (ex. 480 nm, em. 535 nm). […] The calcium response was initiated by addition of 100 μl of the indicated concentration of capsaicin (SIGMA #M2028). The VIPR instrument was used to add agonist (in 100 μl enriched-PBS) after recording a 10 sec. baseline and the fluorescence was measured for up to 300 sec.\nChanges in intracellular calcium were measured using the fluo-3 dye and detecting the kinetics of the response after addition of the VR1 agonist, capsaicin (0.5 uM) to cells expressing VR1 using a VIPR fluorescence plate reader (FIGS. 5 & 6A)."}}}
{"smiles": "CC(=O)OCOC(=O)CN(CC(=O)OCOC(C)=O)c1ccccc1OCCOc1ccccc1N(CC(=O)OCOC(C)=O)CC(=O)OCOC(C)=O", "note": "[BAPTA-AM, 1,2-bis(o-aminophenoxy)ethane-N,N,N′,N′-tetraacetic acid tetra(acetoxymethyl)ester]", "values": [{"measurement": "duration of stable fluorescent signal", "setting": "[1]", "result": "up to 5 minutes"}, {"measurement": "time to peak fluorescence response", "setting": "[1]", "result": 150, "unit": "s"}, {"measurement": "slowing of calcium transients", "setting": "[2]", "result": "up to 8 fold"}, {"measurement": "duration of extended luminescence signal", "setting": "[3]", "result": "greater than 30 seconds"}, {"measurement": "luminescence signal relative to the response in the absence of BAPTA", "setting": "[4]", "result": "about 5%"}, {"measurement": "time to reach the maximum light emission", "setting": "[4]", "result": 75, "unit": "s"}, {"measurement": "time to peak fluorescence signal", "setting": "[5]; 3 μM BAPTA-AM for 30 minutes", "result": "about 40 sec"}, {"measurement": "fluo-3 signal decay time", "setting": "[5]; 3 μM BAPTA-AM", "result": "about 150 s"}, {"measurement": "peak response time", "setting": "[5]; 10 and 30 μM BAPTA-AM", "result": "up to 100 sec"}]}
